Test [1] concerns 4th stage larvae (L4) of Dirofilaria immitis. Nature of the test: Dirofilaria immitis, L4 Stage (DiL4) In Vitro Assay. The test is classed as cell-based. As to conditions: Dirofilaria immitis, 72 h, read-out: DiL4 Minimum Effective Dose (MED), approximately 72 hours incubation; L4 larvae assessed for survival or paralysis.
The test system of test [2] is microfilariae of Dirofilaria immitis. Nature of the test: Dirofilaria immitis, Microfilaria (DiMF) In vitro Assay. As to conditions: 72 h, read-out: DiMF Minimum Effective Dose (MED), approximately 72 hours incubation, microfilariae assessed for survival or paralysis. The test is classed as cell-based.

In the case of `CC(C)C[C@H]1C(=O)O[C@H](Cc2cccc(Cn3cc(Br)cn3)c2)C(=O)N(C)[C@@H](CC(C)C)C(=O)O[C@H](C)C(=O)N(C)[C@@H](CC(C)C)C(=O)O[C@H](Cc2cccc(Cn3cc(Br)cn3)c2)C(=O)N(C)[C@@H](CC(C)C)C(=O)O[C@H](C)C(=O)N1C` [Example 4-2, (3S,6R,9S,12R,15S,18R,21S,24R)-6,18-bis(3-((4-bromo-1H-pyrazol-1-yl)methyl)benzyl)-3,9,15,21-tetraisobutyl-4,10,12,16,22,24-hexamethyl-1,7,13,19-tetraoxa-4,10,16,22-tetraazacyclotetracosan-2,5,8,11,14,17,20,23-octaone], the results for the minimal effective concentration in test [1] and in test [2] were 0.0001 to 0.001 µM and 0.001 to 0.01 µM, respectively.
Regarding `CC(C)C[C@H]1C(=O)O[C@H](Cc2ccc(Cn3cc(Oc4ccccn4)cn3)cc2)C(=O)N(C)[C@@H](CC(C)C)C(=O)O[C@H](C)C(=O)N(C)[C@@H](CC(C)C)C(=O)O[C@H](Cc2ccc(Cn3cc(Oc4ccccn4)cn3)cc2)C(=O)N(C)[C@@H](CC(C)C)C(=O)O[C@H](C)C(=O)N1C` [Example 1b-175, (3S,6R,9S,12R,15S,18R,21S,24R)-3,9,15,21-tetraisobutyl-4,6,10,16,18,22-hexamethyl-12,24-bis(4-((4-(pyridin-2-yloxy)-1H-pyrazol-1-yl)methyl)benzyl)-1,7,13,19-tetraoxa-4,10,16,22-tetraazacyclotetracosan-2,5,8,11,14,17,20,23-octaone], the minimal effective concentration in test [1] and in test [2] was 0.001 to 0.01 µM in each case.
Consider `CC(C)C[C@H]1C(=O)O[C@H](Cc2ccc(Cn3cc(OCC(F)(F)F)cn3)cc2)C(=O)N(C)[C@@H](CC(C)C)C(=O)O[C@H](C)C(=O)N(C)[C@@H](CC(C)C)C(=O)O[C@H](Cc2ccc(Cn3cc(OCC(F)(F)F)cn3)cc2)C(=O)N(C)[C@@H](CC(C)C)C(=O)O[C@H](C)C(=O)N1C` [Example 1b-150, (3S,6R,9S,12R,15S,18R,21S,24R)-3,9,15,21-tetraisobutyl-4,6,10,16,18,22-hexamethyl-12,24-bis(4-((4-(2,2,2-trifluoroethoxy)-1H-pyrazol-1-yl)methyl)benzyl)-1,7,13,19-tetraoxa-4,10,16,22-tetraazacyclotetracosan-2,5,8,11,14,17,20,23-octaone], for which the figures for the minimal effective concentration in test [1] and in test [2] were 0.0001 to 0.001 µM and 0.001 to 0.01 µM, respectively.
Regarding `CC(C)C#Cc1cnn(Cc2ccc(C[C@H]3OC(=O)[C@H](CC(C)C)N(C)C(=O)[C@@H](C)OC(=O)[C@H](CC(C)C)N(C)C(=O)[C@@H](Cc4ccc(Cn5cc(C#CC(C)C)cn5)cc4)OC(=O)[C@H](CC(C)C)N(C)C(=O)[C@@H](C)OC(=O)[C@H](CC(C)C)N(C)C3=O)cc2)c1` [Example 1b-112, (3S,6R,9S,12R,15S,18R,21S,24R)-3,9,15,21-tetraisobutyl-4,6,10,16,18,22-hexamethyl-12,24-bis(4-((4-(3-methylbut-1-yn-1-yl)-1H-pyrazol-1-yl)methyl)benzyl)-1,7,13,19-tetraoxa-4,10,16,22-tetraazacyclotetracosan-2,5,8,11,14,17,20,23-octaone], the minimal effective concentration in test [1] lay in the range of 0.0001 to 0.001 µM; in test [2] it was 0.01 to 0.1 µM.
In the case of `CC(C)C[C@H]1C(=O)O[C@H](Cc2ccc(Cn3nc(C(F)(F)F)cc3C(F)(F)F)cc2)C(=O)N(C)[C@@H](CC(C)C)C(=O)O[C@H](C)C(=O)N(C)[C@@H](CC(C)C)C(=O)O[C@H](Cc2ccccc2)C(=O)N(C)[C@@H](CC(C)C)C(=O)O[C@H](C)C(=O)N1C` [Example 2-55, (3S,6R,9S,12R,15S,18R,21S,24R)-6-benzyl-18-(4-((3,5-bis(trifluoromethyl)-1H-pyrazol-1-yl)methyl)benzyl)-3,9,15,21-tetraisobutyl-4,10,12,16,22,24-hexamethyl-1,7,13,19-tetraoxa-4,10,16,22-tetraazacyclotetracosan-2,5,8,11,14,17,20,23-octaone], the figures for the minimal effective concentration in test [1] and in test [2] were 0.0001 to 0.001 µM and 0.001 to 0.01 µM, respectively.
The matching figures for `COc1ccc(-c2ccnn2Cc2ccc(C[C@H]3OC(=O)[C@H](CC(C)C)N(C)C(=O)[C@@H](C)OC(=O)[C@H](CC(C)C)N(C)C(=O)[C@@H](Cc4ccc(Cn5nccc5-c5ccc(OC)cc5)cc4)OC(=O)[C@H](CC(C)C)N(C)C(=O)[C@@H](C)OC(=O)[C@H](CC(C)C)N(C)C3=O)cc2)cc1` [Example 1b-149, (3S,6R,9S,12R,15S,18R,21S,24R)-3,9,15,21-tetraisobutyl-6,18-bis(4-((5-(4-methoxyphenyl)-1H-pyrazol-1-yl)methyl)benzyl)-4,10,12,16,22,24-hexamethyl-1,7,13,19-tetraoxa-4,10,16,22-tetraazacyclotetracosan-2,5,8,11,14,17,20,23-octaone]: 0.001 to 0.01 µM and 0.01 to 0.1 µM.
The matching figures for `CC(C)C[C@H]1C(=O)O[C@H](Cc2ccc(Cn3cc(Oc4nccs4)cn3)cc2)C(=O)N(C)[C@@H](CC(C)C)C(=O)O[C@H](C)C(=O)N(C)[C@@H](CC(C)C)C(=O)O[C@H](Cc2ccc(Cn3cc(Oc4nccs4)cn3)cc2)C(=O)N(C)[C@@H](CC(C)C)C(=O)O[C@H](C)C(=O)N1C` [Example 1b-174, (3S,6R,9S,12R,15S,18R,21S,24R)-3,9,15,21-tetraisobutyl-4,6,10,16,18,22-hexamethyl-12,24-bis(4-((4-(thiazol-2-yloxy)-1H-pyrazol-1-yl)methyl)benzyl)-1,7,13,19-tetraoxa-4,10,16,22-tetraazacyclotetracosan-2,5,8,11,14,17,20,23-octaone]: 0.001 to 0.01 µM and 0.001 to 0.01 µM.
The matching figures for `CC(C)C[C@H]1C(=O)O[C@H](Cc2ccc(CN3C(=O)CSc4cccnc43)cc2)C(=O)N(C)[C@@H](CC(C)C)C(=O)O[C@H](C)C(=O)N(C)[C@@H](CC(C)C)C(=O)O[C@H](Cc2ccc(CN3C(=O)CSc4cccnc43)cc2)C(=O)N(C)[C@@H](CC(C)C)C(=O)O[C@H](C)C(=O)N1C` [Example 9-61, (3S,6R,9S,12R,15S,18R,21S,24R)-3,9,15,21-tetraisobutyl-4,6,10,16,18,22-hexamethyl-12,24-bis[[4-[(3-oxopyrido[3,2-b][1,4]thiazin-4-yl)methyl]phenyl]methyl]-1,7,13,19-tetraoxa-4,10,16,22-tetrazacyclotetracosane-2,5,8,11,14,17,20,23-octaone]: 0.001 to 0.01 µM and 0.01 to 0.1 µM.
In the case of `CC(C)C[C@H]1C(=O)O[C@H](Cc2ccc(Cn3cc(COC(C)C)cn3)cc2)C(=O)N(C)[C@@H](CC(C)C)C(=O)O[C@H](C)C(=O)N(C)[C@@H](CC(C)C)C(=O)O[C@H](Cc2ccc(Cn3cc(COC(C)C)cn3)cc2)C(=O)N(C)[C@@H](CC(C)C)C(=O)O[C@H](C)C(=O)N1C` [Example 1b-184, (3S,6R,9S,12R,15S,18R,21S,24R)-3,9,15,21-tetraisobutyl-6,18-bis(4-((4-(isopropoxymethyl)-1H-pyrazol-1-yl)methyl)benzyl)-4,10,12,16,22,24-hexamethyl-1,7,13,19-tetraoxa-4,10,16,22-tetraazacyclotetracosan-2,5,8,11,14,17,20,23-octaone], the minimal effective concentration in test [1] and in test [2] was 0.001 to 0.01 µM throughout.
In the case of `CC(C)C[C@H]1C(=O)O[C@H](Cc2ccc(Cn3nccc3C3CCCC3)cc2)C(=O)N(C)[C@@H](CC(C)C)C(=O)O[C@H](C)C(=O)N(C)[C@@H](CC(C)C)C(=O)O[C@H](Cc2ccc(Cn3nccc3C3CCCC3)cc2)C(=O)N(C)[C@@H](CC(C)C)C(=O)O[C@H](C)C(=O)N1C` [Example 1b-154, (3S,6R,9S,12R,15S,18R,21S,24R)-6,18-bis(4-((5-cyclopentyl-1H-pyrazol-1-yl)methyl)benzyl)-3,9,15,21-tetraisobutyl-4,10,12,16,22,24-hexamethyl-1,7,13,19-tetraoxa-4,10,16,22-tetraazacyclotetracosan-2,5,8,11,14,17,20,23-octaone], the results for the minimal effective concentration in test [1] and in test [2] were at most 0.0001 µM and 0.001 to 0.01 µM, respectively.
Regarding `CC(C)C[C@H]1C(=O)O[C@H](Cc2ccc(Cn3cc(Cl)cn3)cc2)C(=O)N(C)[C@@H](CC(C)C)C(=O)O[C@H](C)C(=O)N(C)[C@@H](CC(C)C)C(=O)O[C@H](Cc2ccccc2)C(=O)N(C)[C@@H](CC(C)C)C(=O)O[C@H](C)C(=O)N1C` [Example 2-25, (3S,6R,9S,12R,15S,18R,21S,24R)-6-benzyl-18-(4-((4-chloro-1H-pyrazol-1-yl)methyl)benzyl)-3,9,15,21-tetraisobutyl-4,10,12,16,22,24-hexamethyl-1,7,13,19-tetraoxa-4,10,16,22-tetraazacyclotetracosan-2,5,8,11,14,17,20,23-octaone], the minimal effective concentration in test [1] was in the range of 0.0001 to 0.001 µM; in test [2] it was 0.001 to 0.01 µM.
The matching figures for `CC(C)C[C@H]1C(=O)O[C@H](Cc2ccc(Cn3nc(C#N)cc3C#N)cc2)C(=O)N(C)[C@@H](CC(C)C)C(=O)O[C@H](C)C(=O)N(C)[C@@H](CC(C)C)C(=O)O[C@H](Cc2ccc(Cn3cc(Br)c(C#N)n3)cc2)C(=O)N(C)[C@@H](CC(C)C)C(=O)O[C@H](C)C(=O)N1C` [Example 1a-1, 1-(4-(((2R,5S,8R,11S,14R,17S,20R,23S)-14-(4-((4-bromo-3-cyano-1H-pyrazol-1-yl)methyl)benzyl)-5,11,17,23-tetraisobutyl-4,8,10,16,20,22-hexamethyl-3,6,9,12,15,18,21,24-octaoxo-1,7,13,19-tetraoxa-4,10,16,22-tetraazacyclotetracosan-2-yl)methyl)benzyl)-1H-pyrazole-3,5-dicarbonitrile]: 0.0001 to 0.001 µM and 0.001 to 0.01 µM.

(Values after patent US11331369B2, “Endoparasitic depsipeptides” (Zoetis Services LLC, priority 2017, dated 2022).)
